Laboratory results: patent US8124641B2, “Aminotetrahydroindazoloacetic acids” (Hoffmann-La Roche Inc., priority 2008, dated 2012)

Target: T1, human CRTH2 (Homo sapiens, UniProt Q9Y5Y4)
T1 construct: expressed in transfected cells
T1 sequence (Q9Y5Y4 1-395): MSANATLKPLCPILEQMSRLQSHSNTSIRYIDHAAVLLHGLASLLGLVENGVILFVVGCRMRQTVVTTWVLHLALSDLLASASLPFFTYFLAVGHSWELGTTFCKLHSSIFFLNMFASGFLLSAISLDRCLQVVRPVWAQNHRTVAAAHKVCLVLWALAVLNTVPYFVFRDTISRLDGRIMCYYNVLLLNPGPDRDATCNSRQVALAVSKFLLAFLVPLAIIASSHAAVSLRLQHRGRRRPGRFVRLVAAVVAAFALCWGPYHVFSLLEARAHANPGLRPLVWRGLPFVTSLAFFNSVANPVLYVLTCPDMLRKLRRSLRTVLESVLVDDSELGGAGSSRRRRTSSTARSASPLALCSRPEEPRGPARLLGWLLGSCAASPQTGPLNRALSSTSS
Assay: Human CRTH2 Receptor Binding Assay (whole cell, [3H]ramatroban competition)
Conditions: CHO-K1 cells stably expressing human CRTH2 and G-alpha16; 20 nM [3H]ramatroban; 1 hour, room temperature
Source text: A whole cell receptor binding assay using [^3H]ramatroban as the competing radioactive ligand was employed to evaluate the compound binding activity to human CRTH2. The radioactive ligand [^3H]ramatroban was synthesized according to Sugimoto et. al. (Eur. J. Pharmacol. 524, 30-37, 2005) to a specific activity of 42 Ci/mmol.
A cell line stably expressing human CRTH2 was established by transfecting CHO-K1 cells with two mammalian expression vectors that harbored human CRTH2 and G-alpha16 cDNAs, respectively, using FuGene® 6 transfection reagent (from Roche). Stable clones expressing CRTH2 were selected by staining each clone with BM16 (BD Pharmingen™ from BD Biosciences, a division of Becton, Dickinson and Company), which is a rat monoclonal antibody to human CRTH2. The cells were maintained as monolayer cultures in Ham's F-12 medium containing 10% fetal bovine serum, 100 units/mL penicillin, 100 μg/mL streptomycin, 2 mM glutamine, 0.5 mg/mL G418 (geneticin) for CRTH2, and 0.2 mg/mL hygromycin-B (for G-alpha 16). For whole cell receptor binding assay, the monolayer cells were rinsed once with PBS (phosphate buffered saline), dissociated using ethylenediaminetetraacetate (Versene™ EDTA from Lonza Inc.), and suspended in PBS containing 10 mM MgCl2 and 0.06% BSA (bovine serum albumin) at 1.5×10^6 cells/mL.
The binding reactions (0.2 mL) were performed in 96-well plates at room temperature in PBS containing 1.5×10^5 cells, 10 mM MgCl2, 0.06% BSA, 20 nM [^3H]ramatroban, and test compound at various concentrations. After 1 hour of binding reactions, the cells were harvested on GF™/B filter microplates (microtiter plates with embedded glass fiber from PerkinElmer, Inc.) and washed 5 times with PBS using a Filtermate™ Harvester (a cell harvester that harvests and washes cells from microplates from PerkinElmer, Inc.). The radioactivities bound to the cells were determined using a microplate scintillation counter (TopCount® NXT, from PerkinElmer, Inc.) after adding 50 μL of Microscint™ 20 scintillation fluid (from PerkinElmer, Inc.) to each well of the filter plates. The radioactivity from non-specific binding was determined by replacing compound with 10 μM of 15(R)-15-methyl PGD2 (from Cayman Chemical Company) in the reaction mixtures. The radioactivity bound to the cells in the absence of compound (total binding) was determined by replacing compound with 0.25% of DMSO (dimethyl sulfoxide) in the reaction mixture. Specific binding data were obtained by subtracting the radioactivity of non-specific binding from each binding data.
The IC50 value is defined as the concentration of the tested compound that is required for 50% inhibition of total specific binding. In order to calculate the IC50 value, the percent inhibition data were determined for 7 concentrations for each compound. The percent inhibition for a compound at each concentration was calculated according to the following formula, [1−(specific binding in the presence of compound)/(total specific binding)]×100. The IC50 value was then obtained by fitting the percent inhibition data to a sigmoidal dose-response (4 parameter logistic) model in the XLfit® software Excel add-in program [from ID Business Solutions Ltd., model 205, where F(x)=(A+(B−A)/(1+((C/x)^D)))].

| SMILES | IC50 |
| --- | --- |
| CCOc1ncc(S(=O)(=O)NC2CCCc3c2cnn3CC(=O)O)cc1Br (centres unmarked) [Example 3-2a, [4-(5-Bromo-6-ethoxy-pyridine-3-sulfonylamino)-4,5,6,7-tetrahydro-indazol-1-yl]-acetic acid] | 370 nM |
| CC(C)Oc1cc(C(F)(F)F)cc(S(=O)(=O)NC2CCCc3c2cnn3CC(=O)O)c1 (centres unmarked) [Example 3-4a, [4-(3-Isopropoxy-5-trifluoromethyl-benzenesulfonylamino)-4,5,6,7-tetrahydro-indazol-1-yl]-acetic acid] | 194 nM |
| CN([C@@H]1CCCc2c1cnn2CC(=O)O)S(=O)(=O)c1ccc(OC2CCCC2)c(Cl)c1 [Example 4-1a, {(R)-4-[(3-Chloro-4-cyclopentyloxy-benzenesulfonyl)-methyl-amino]-1-4,5,6,7-tetrahydro-indazol-1-yl}-acetic acid] | 99.2 nM |
| CN([C@@H]1CCCc2c1cnn2CC(=O)O)S(=O)(=O)c1cnc(OC2CCC2)c(Br)c1 [Example 4-2a, {(R)-4-[(5-Bromo-6-cyclobutoxy-pyridine-3-sulfonyl)-methyl-amino]-4,5,6,7-tetrahydro-indazol-1-yl}-acetic acid] | 39.1 nM |
| CN([C@@H]1CCCc2c1cnn2CC(=O)O)S(=O)(=O)c1cnc(OC2CCOCC2)c(Br)c1 [Example 4-4a, ((R)-4-{[5-Bromo-6-(tetrahydro-pyran-4-yloxy)-pyridine-3-sulfonyl]-methyl-amino}-4,5,6,7-tetrahydro-indazol-1-yl)-acetic acid] | 53.9 nM |
| CC[S+]([O-])c1cc(C(F)(F)F)cc(S(=O)(=O)N(C)[C@@H]2CCCc3c2cnn3CC(=O)O)c1 (stereo partly drawn) [Example 8-1a, {(R)-4-[(3-Ethanesulfinyl-5-trifluoromethyl-benzenesulfonyl)-methyl-amino]-4,5,6,7-tetrahydro-indazol-1-yl}-acetic acid] | 3.3 nM |
| CC(C)S(=O)(=O)c1cc(C(F)(F)F)cc(S(=O)(=O)N(C)[C@@H]2CCCc3c2cnn3CC(=O)O)c1 [Example 10-3a, ((R)-4-{Methyl-[3-(propane-2-sulfonyl)-5-trifluoromethyl-benzenesulfonyl]-amino}-4,5,6,7-tetrahydro-indazol-1-yl)-acetic acid] | 2.1 nM |
| CC(C)S(=O)(=O)c1cc(C(F)(F)F)cc(S(=O)(=O)N(C)[C@@H]2CCCc3c2cnn3CCC(=O)O)c1 [Example 10-5a, 3-((R)-4-{Methyl-[3-(propane-2-sulfonyl)-5-trifluoromethyl-benzenesulfonyl]-amino}-4,5,6,7-tetrahydro-indazol-1-yl)-propionic acid] | 2.4 nM |
| CN([C@@H]1CCCc2c1cnn2CCC(=O)O)S(=O)(=O)c1cc(C(F)(F)F)cc(S(=O)(=O)C2CCCC2)c1 [Example 10-6a, 3-{(R)-4-[(3-Cyclopentanesulfonyl-5-trifluoromethyl-benzenesulfonyl)-methyl-amino]-4,5,6,7-tetrahydro-indazol-1-yl}-propionic acid] | 3.3 nM |
| CC(C)c1cc(C(F)(F)F)cc(S(=O)(=O)N[C@@H]2CCCc3c2cnn3CC(=O)O)c1 [Example 12-1a, (R)-[4-(3-Isopropyl-5-trifluoromethyl-benzenesulfonylamino)-4,5,6,7-tetrahydro-indazol-1-yl]-acetic acid] | 22 nM |
| CC(C)c1cc(C(F)(F)F)cc(S(=O)(=O)N(C)[C@@H]2CCCc3c2cnn3CC(=O)O)c1 [Example 13-1a, {(R)-4-[(3-isopropyl-5-trifluoromethyl-benzenesulfonyl)-methyl-amino]-4,5,6,7-tetrahydro-indazol-1-yl}-acetic acid] | 7.3 nM |

More lines, in order of falling IC50, values ahead:

| IC50 | SMILES |
| --- | --- |
| 37.2 nM | CC(C)Oc1ncc(S(=O)(=O)N(C)[C@@H]2CCCc3c2cnn3CC(=O)O)cc1Br [Example 4-3a, {(R)-4-[(5-Bromo-6-isopropoxy-pyridine-3-sulfonyl)-methyl-amino]-4,5,6,7-tetrahydro-indazol-1-yl}-acetic acid] |
| 12.6 nM | CN([C@@H]1CCCc2c1cnn2CC(=O)O)S(=O)(=O)c1cc(SC2CCCC2)cc(C(F)(F)F)c1 [Example 9-1a, {(R)-4-[(3-Cyclopentylsulfanyl-5-trifluoromethyl-benzenesulfonyl)-methyl-amino]-4,5,6,7-tetrahydro-indazol-1-yl}-acetic acid] |
| 12.5 nM | CN([C@@H]1CCCc2c1cnn2CCC(=O)O)S(=O)(=O)c1cc(C(F)(F)F)cc(S(=O)(=O)C(C)(C)C)c1 [Example 10-7a, 3-((R)-4-{Methyl-[3-(2-methyl-propane-2-sulfonyl)-5-trifluoromethyl-benzenesulfonyl]-amino}-4,5,6,7-tetrahydro-indazol-1-yl)-propionic acid] |
| 10.3 nM | O=C(O)Cn1ncc2c1CCCC2NS(=O)(=O)c1cnc(OC2CCCC2)c(Br)c1 (centres unmarked) [Example 3-3a, [4-(5-Bromo-6-cyclopentyloxy-pyridine-3-sulfonylamino)-4,5,6,7-tetrahydro-indazol-1-yl]-acetic acid] |
| 7.8 nM | CC1(c2cc(C(F)(F)F)cc(S(=O)(=O)N[C@@H]3CCCc4c3cnn4CC(=O)O)c2)CC1 [Example 11-1a, {(R)-4-[3-(1-Methyl-cyclopropyl)-5-trifluoromethyl-benzenesulfonylamino]-4,5,6,7-tetrahydro-indazol-1-yl}-acetic acid] |
| 4.7 nM | CN([C@@H]1CCCc2c1cnn2CC(=O)O)S(=O)(=O)c1cc(C(F)(F)F)cc(S(=O)(=O)C(C)(C)C)c1 [Example 10-4a, ((R)-4-{Methyl-[3-(2-methyl-propane-2-sulfonyl)-5-trifluoromethyl-benzenesulfonyl]-amino}-4,5,6,7-tetrahydro-indazol-1-yl)-acetic acid] |
| 3.1 nM | CS(=O)(=O)c1cc(C(F)(F)F)cc(S(=O)(=O)N[C@@H]2CCCc3c2cnn3CC(=O)O)c1 [Example 5-1a, [(R)-4-(3-Methanesulfonyl-5-trifluoromethyl-benzenesulfonylamino)-4,5,6,7-tetra-hydro-indazol-1-yl]-acetic acid] |
| 2.9 nM | O=C(O)Cn1ncc2c1CCC[C@H]2NS(=O)(=O)c1cc(C(F)(F)F)cc(S(=O)(=O)C2CCCC2)c1 [Example 7-2a, [(R)-4-(3-Cyclopentane-sulfonyl-5-trifluoromethyl-benzenesulfonylamino)-4,5,6,7-tetrahydro-indazol-1-yl]-acetic acid] |
| 2.9 nM | CN([C@@H]1CCCc2c1cnn2CC(=O)O)S(=O)(=O)c1cc(C(F)(F)F)cc(S(=O)(=O)C2CCCC2)c1 [Example 10-2a, {(R)-4-[(3-Cyclopentanesulfonyl-5-trifluoromethyl-benzenesulfonyl)-methyl-amino]-4,5,6,7-tetrahydro-indazol-1-yl}-acetic acid] |
| 2.6 nM | CCS(=O)(=O)c1cc(C(F)(F)F)cc(S(=O)(=O)N[C@@H]2CCCc3c2cnn3CC(=O)O)c1 [Example 7-1a, [(R)-4-(3-Ethanesulfonyl-5-trifluoromethyl-benzenesulfonylamino)-4,5,6,7-tetrahydro-indazol-1-yl]-acetic acid] |
| 2.5 nM | CN([C@@H]1CCCc2c1cnn2CC(=O)O)S(=O)(=O)c1cc(C(F)(F)F)cc(S(C)(=O)=O)c1 [Example 6-1a, {(R)-4-[(3-Methanesulfonyl-5-trifluoromethyl-benzenesulfonyl)-methyl-amino]-4,5,6,7-tetrahydro-indazol-1-yl}-acetic acid] |
| 2.5 nM | CCS(=O)(=O)c1cc(C(F)(F)F)cc(S(=O)(=O)N(C)[C@@H]2CCCc3c2cnn3CC(=O)O)c1 [Example 10-1a, {(R)-4-[(3-Ethanesulfonyl-5-trifluoromethyl-benzenesulfonyl)-methyl-amino]-4,5,6,7-tetrahydro-indazol-1-yl}-acetic acid] |
